# Measured values taken from patent US20230172961A1 (priority 2020, published 2023).
# “Also recorded” adds a separate entry of the source. Where two headings read alike, the source gives them in different places.
# Columns and labels:
# [1] = molecular target: T1, SARS-CoV-2 RdRp (nsp12, nsp7 and nsp8) (Severe acute respiratory syndrome coronavirus 2, UniProt P0DTD1); assay type: biochemical
# [2] = molecular target: SARS-CoV RdRp (nsp12, nsp7 and nsp8) (Severe acute respiratory syndrome coronavirus, UniProt P0C6X7); assay type: biochemical
# [3] = tested on: RdRp of SARS-CoV and/or SARS-CoV-2; assay type: biochemical
# [4] = molecular target: SARS-CoV-2 exonuclease complex (nsp14/nsp10) (Severe acute respiratory syndrome coronavirus 2, UniProt P0DTD1); assay: Inhibition of SARS-CoV-2 exonuclease, MALDI-TOF MS; assay type: biochemical
# [5] = molecular target: T1, SARS-CoV-2 RdRp (nsp12, nsp7 and nsp8); conditions: kinetic studies of Gordon et al 2020a, b; RDV-TP with MERS-CoV and SARS-CoV-2 RdRps; cited from earlier work
# Therminator II = Therminator II (Thermococcus sp., UniProt Q56366, A485L/D141A/E143A/Y409V); conditions: 10 µM nucleotide, DNA template and primer, MALDI-TOF MS
# Sequence of Therminator II (Q56366 whole entry D141A/E143A/Y409V/A485L): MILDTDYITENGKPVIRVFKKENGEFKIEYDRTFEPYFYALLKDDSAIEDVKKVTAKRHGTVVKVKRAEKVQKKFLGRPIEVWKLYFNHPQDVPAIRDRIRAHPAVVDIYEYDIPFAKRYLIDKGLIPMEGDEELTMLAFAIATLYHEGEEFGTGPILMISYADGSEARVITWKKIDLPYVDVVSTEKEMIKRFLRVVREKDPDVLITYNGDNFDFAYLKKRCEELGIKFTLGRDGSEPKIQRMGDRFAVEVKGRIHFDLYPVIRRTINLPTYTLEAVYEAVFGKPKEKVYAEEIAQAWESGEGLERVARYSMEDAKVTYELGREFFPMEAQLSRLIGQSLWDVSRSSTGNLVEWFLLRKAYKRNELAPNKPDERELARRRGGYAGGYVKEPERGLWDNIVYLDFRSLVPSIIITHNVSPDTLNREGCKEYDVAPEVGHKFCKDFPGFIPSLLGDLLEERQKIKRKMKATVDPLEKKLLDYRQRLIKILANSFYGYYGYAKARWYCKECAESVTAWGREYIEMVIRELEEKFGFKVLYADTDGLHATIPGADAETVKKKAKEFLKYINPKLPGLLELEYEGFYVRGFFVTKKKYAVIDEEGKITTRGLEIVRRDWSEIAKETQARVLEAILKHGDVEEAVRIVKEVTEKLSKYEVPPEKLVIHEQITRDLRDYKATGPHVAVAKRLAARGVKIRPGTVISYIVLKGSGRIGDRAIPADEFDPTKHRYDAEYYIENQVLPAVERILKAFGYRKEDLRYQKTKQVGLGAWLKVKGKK
# Therminator IX = conditions: 10 µM nucleotide, DNA template and primer, MALDI-TOF MS
# Thermo Sequenase = assay: DNA polymerase extension reaction, MALDI-TOF MS, high fidelity polymerase; conditions: 10 µM nucleotide, DNA template and primer
# [6] = 150 µM inhibitor, 30 nM nsp14/nsp10, 37° C., 15 min
# [7] = 10 µM inhibitor, 30 nM nsp14/nsp10, 37° C., 15 min
# [8] = 30 µM inhibitor, 30 nM nsp14/nsp10, 37° C., 15 min
# [9] = 100 µM inhibitor, 30 nM nsp14/nsp10, 37° C., 15 min
# [10] = 300 µM inhibitor, 30 nM nsp14/nsp10, 37° C., 15 min
molecule,measurement,setting,value
"CC(Cn1cnc2c(N)ncnc21)OCP(=O)(O)OP(=O)(O)OP(=O)(O)O (stereo in doubt) [TFV-DP, Tenofovir diphosphate]",termination of the polymerase reaction,[1],obligate terminator for the RdRp
"O=c1ccn([C@@H]2O[C@H](COP(=O)(O)OP(=O)(O)OP(=O)(O)O)[C@@H](O)[C@H]2F)c(=O)[nH]1 [2′-F-dUTP, 2′-fluoro-2′-deoxyuridine-5′-triphosphate]",relative incorporation efficiency in equimolar combinations,[1],incorporated far better than 2′-O-Me-UTP and dUTP
same,termination of the polymerase reaction in equimolar combinations,[1],not terminators of the polymerase reaction
same,incorporation efficiency,[2],incorporated very efficiently
same,termination of the polymerase reaction (summary of the 11 tested),[3],did not terminate the polymerase reaction
"N[C@@H]1[C@H](O)[C@@H](COP(=O)(O)OP(=O)(O)OP(=O)(O)O)O[C@H]1n1ccc(=O)[nH]c1=O [2′-NH2-dUTP, 2′-amino-2′-deoxyuridine-5′-triphosphate]",relative incorporation efficiency in equimolar combinations,[1],more efficiently incorporated than 2′-O-Me-UTP and dUTP
same,termination of the polymerase reaction in equimolar combinations,[1],not terminators of the polymerase reaction
same,termination of the polymerase reaction (summary of the 11 tested),[3],did not terminate the polymerase reaction
"CO[C@@H]1[C@H](O)[C@@H](COP(=O)(O)OP(=O)(O)OP(=O)(O)O)O[C@H]1n1ccc(=O)[nH]c1=O [2′-OMe-UTP, 2′-O-methyluridine-5′-triphosphate]",termination of the polymerase reaction,[1],significant termination after the first incorporation step
same,termination of the polymerase reaction,[2],significant polymerase reaction termination
same,termination of the polymerase reaction (summary of the 11 tested),[3],incomplete or delayed termination
"Cc1cn([C@H]2C[C@H](F)[C@@H](COP(=O)(O)OP(=O)(O)OP(=O)(O)O)O2)c(=O)[nH]c1=O [3′-F-dTTP, 3′-fluoro-3′-deoxythymidine triphosphate]",incorporation efficiency,[1],efficient substrates of the RdRp
same,termination of the polymerase reaction,[1],no further incorporation
same,termination of the polymerase reaction,[2],permanent terminators
"Cc1cn([C@H]2C[C@H](N=[N+]=[N-])[C@@H](COP(=O)(O)OP(=O)(O)OP(=O)(O)O)O2)c(=O)[nH]c1=O [3′-N3-dTTP, 3′-N3-3′-deoxythymidine triphosphate]",incorporation efficiency,[1],"incorporation efficiency was lower than for 2′-F,Me-UTP and 3′-F-dTTP"
same,termination of the polymerase reaction,[1],no evidence of further incorporation
same,termination of the polymerase reaction,[2],permanent terminators
"CO[C@H]1[C@@H](O)[C@H](n2ccc(=O)[nH]c2=O)O[C@@H]1COP(=O)(O)OP(=O)(O)OP(=O)(O)O [3′-OMe-UTP, 3′-0-methyluridine-5′-triphosphate]",incorporation efficiency,[2],lower incorporation efficiency
same,termination of the polymerase reaction,[2],obligate terminator
same,termination of the polymerase reaction (summary of the 11 tested),[3],complete termination of the polymerase reaction
"Nc1nc(=O)n([C@@H]2CS[C@H](COP(=O)(O)OP(=O)(O)OP(=O)(O)O)O2)cc1F [Ec-TP, Emtricitabine triphosphate]",incorporation efficiency,[1],relatively poor incorporation
COc1cc2c(cc1Cc1cccc(Cl)c1F)c(=O)c(C(=O)O)cn2[C@H](CO)C(C)C [Elvitegravir],inhibition of exonuclease activity,[4]; concentration not stated for this compound (FIG. 59d),able to inhibit the exonuclease
"Nc1nc(O)c2ncn(COC(CO)COP(=O)(O)OP(=O)(O)OP(=O)(O)O)c2n1 (centres unmarked) [Gan-TP, Ganciclovir 5′-triphosphate]",termination of the polymerase reaction,[1],complete termination; also recorded: better terminators than Ent-TP
same,termination of the polymerase reaction,[2],terminate the polymerase reaction
same,termination of the polymerase reaction (summary of the 11 tested),[3],complete termination of the polymerase reaction
"Nc1ccn([C@@H]2CS[C@H](COP(=O)(O)OP(=O)(O)OP(=O)(O)O)O2)c(=O)n1 [Lam-TP, Lamivudine triphosphate]",incorporation efficiency,[1],relatively poor incorporation
COC(=O)N[C@H](C(=O)N1CC2(CC2)C[C@H]1c1nc(-c2ccc3c(c2)C(F)(F)c2cc(-c4ccc5[nH]c([C@@H]6[C@H]7CC[C@H](C7)N6C(=O)[C@@H](NC(=O)OC)C(C)C)nc5c4)ccc2-3)c[nH]1)C(C)C [Ledipasvir],inhibition of exonuclease activity,[4]; [6],able to inhibit the exonuclease
Cc1cccc(C)c1OCC(=O)N[C@@H](Cc1ccccc1)[C@@H](O)C[C@H](Cc1ccccc1)NC(=O)[C@H](C(C)C)N1CCCNC1=O [Lopinavir],inhibition of exonuclease activity,[4]; [7],small inhibition of the exonuclease activity
same,inhibition of exonuclease activity,[4]; [8],fragmentation peaks are further reduced
same,inhibition of exonuclease activity,[4]; [9],fragmentation peaks are further reduced
same,inhibition of exonuclease activity,[4]; [10],complete inhibition of exonuclease activity
COC(=O)N[C@H](C(=O)N1CCC[C@H]1C(=O)Nc1ccc([C@@H]2CC[C@@H](c3ccc(NC(=O)[C@@H]4CCCN4C(=O)[C@@H](NC(=O)OC)C(C)C)cc3)N2c2ccc(C(C)(C)C)cc2)cc1)C(C)C [Ombitasvir],inhibition of exonuclease activity,"[4]; 1 µM inhibitor, 30 nM nsp14/nsp10, 37° C., 15 min",shows inhibition of the exonuclease activity
same,inhibition of exonuclease activity,[4]; [7],significantly increased inhibition of exonuclease activity
same,inhibition of exonuclease activity,[4]; [6],able to inhibit the exonuclease
COC(=O)N[C@H](C(=O)N1CCC[C@H]1c1nc2cc([C@H]3CC[C@H](c4cc5nc([C@@H]6CCCN6C(=O)[C@@H](NC(=O)OC)[C@@H](C)OC)[nH]c5cc4F)N3c3cc(F)c(N4CCC(c5ccc(F)cc5)CC4)c(F)c3)c(F)cc2[nH]1)[C@@H](C)OC [Pibrentasvir],inhibition of exonuclease activity,"[4]; 0.1 µM inhibitor, 30 nM nsp14/nsp10, 37° C., 15 min",shows inhibition of the exonuclease activity
same,inhibition of exonuclease activity,[4]; [7],significantly increased inhibition of exonuclease activity
same,inhibition of exonuclease activity,[4]; [6],able to inhibit the exonuclease
N#C[C@@]1(c2ccc3c(N)ncnn23)O[C@H](COP(=O)(O)OP(=O)(O)OP(=O)(O)O)[C@@H](O)[C@H]1O [RDV-TP],incorporation efficiency relative to the natural nucleotide,[5],higher incorporation efficiency than ATP
CC(C)c1nc(CN(C)C(=O)N[C@H](C(=O)N[C@@H](Cc2ccccc2)C[C@H](O)[C@H](Cc2ccccc2)NC(=O)OCc2cncs2)C(C)C)cs1 [Ritonavir],inhibition of exonuclease activity,[4]; [7],shows inhibition of the exonuclease activity
same,inhibition of exonuclease activity,[4]; [8],fragmentation peaks are further reduced
same,inhibition of exonuclease activity,[4]; [9],fragmentation peaks are further reduced
same,inhibition of exonuclease activity,[4]; [10],complete inhibition of exonuclease activity
"Cc1cn([C@H]2C=C[C@@H](COP(=O)(O)OP(=O)(O)OP(=O)(O)O)O2)c(=O)[nH]c1=O [Sta-TP, Stavudine 5′-triphosphate]",incorporation efficiency,[1],very efficiently incorporated
same,termination of the polymerase reaction,[1],complete termination of the polymerase reaction
same,termination of the polymerase reaction at 10-fold lower concentration,[1],resulted in termination of the polymerase reaction
same,termination of the polymerase reaction (summary of the 11 tested),[3],complete termination of the polymerase reaction
O=c1ccn([C@@H]2O[C@H](COP(=O)(O)OP(=O)(O)OP(=O)(O)O)[C@@H](O)[C@H]2O)c(=O)[nH]1 [UTP],termination of the polymerase reaction,[2],primer extension by 2 UTPs occurred
Cc1cn([C@H]2C[C@H](O)[C@@H](COP(=O)(O)OP(=O)(O)OP(=O)(O)O)O2)c(=O)[nH]c1=O [dTTP],incorporation and block of further nucleotide incorporation,Therminator II,incorporation continued past the first A in the template
same,incorporation and block of further nucleotide incorporation,Therminator IX,incorporation continued past the first A in the template
same,incorporation and block of further nucleotide incorporation,Thermo Sequenase,incorporation continued past the first A in the template
O=c1ccn([C@H]2C[C@H](O)[C@@H](COP(=O)(O)OP(=O)(O)OP(=O)(O)O)O2)c(=O)[nH]1 [dUTP],relative incorporation efficiency in equimolar combinations,"[1]; 250 µM each nucleotide, equimolar combinations (FIG. 36)",lower incorporation efficiency than the natural UTP
Cidofovir diphosphate [Cid-DP],termination of the polymerase reaction,[1],delayed termination
same,termination of the polymerase reaction at 10-fold lower concentration,[1],resulted in termination of the polymerase reaction
same,termination of the polymerase reaction,[2],terminate the polymerase reaction
same,termination of the polymerase reaction (summary of the 11 tested),[3],incomplete or delayed termination
Sofosbuvir,extension of the RNA template-loop-primer,"[1]; […], RDV-TP together with UTP",complete conversion
biotin-16-aminoallyl-2′-deoxyuridine-5′-triphosphate [Biotin-dUTP],relative incorporation efficiency in equimolar combinations,[1],lower incorporation efficiency than the natural UTP
same,termination of the polymerase reaction,[1],terminator of the polymerase reaction
same,termination of the polymerase reaction (summary of the 11 tested),[3],complete termination of the polymerase reaction
desthiobiotin-16-aminoallyl-uridine-5′-triphosphate [Desthio-UTP],incorporation efficiency,[1],incorporated
same,termination of the polymerase reaction,[1],does not terminate the polymerase reaction
same,termination of the polymerase reaction (summary of the 11 tested),[3],did not terminate the polymerase reaction
